# Molecular target: EGFR (UniProt P00533)
# Sequence (P00533 whole entry, looked up): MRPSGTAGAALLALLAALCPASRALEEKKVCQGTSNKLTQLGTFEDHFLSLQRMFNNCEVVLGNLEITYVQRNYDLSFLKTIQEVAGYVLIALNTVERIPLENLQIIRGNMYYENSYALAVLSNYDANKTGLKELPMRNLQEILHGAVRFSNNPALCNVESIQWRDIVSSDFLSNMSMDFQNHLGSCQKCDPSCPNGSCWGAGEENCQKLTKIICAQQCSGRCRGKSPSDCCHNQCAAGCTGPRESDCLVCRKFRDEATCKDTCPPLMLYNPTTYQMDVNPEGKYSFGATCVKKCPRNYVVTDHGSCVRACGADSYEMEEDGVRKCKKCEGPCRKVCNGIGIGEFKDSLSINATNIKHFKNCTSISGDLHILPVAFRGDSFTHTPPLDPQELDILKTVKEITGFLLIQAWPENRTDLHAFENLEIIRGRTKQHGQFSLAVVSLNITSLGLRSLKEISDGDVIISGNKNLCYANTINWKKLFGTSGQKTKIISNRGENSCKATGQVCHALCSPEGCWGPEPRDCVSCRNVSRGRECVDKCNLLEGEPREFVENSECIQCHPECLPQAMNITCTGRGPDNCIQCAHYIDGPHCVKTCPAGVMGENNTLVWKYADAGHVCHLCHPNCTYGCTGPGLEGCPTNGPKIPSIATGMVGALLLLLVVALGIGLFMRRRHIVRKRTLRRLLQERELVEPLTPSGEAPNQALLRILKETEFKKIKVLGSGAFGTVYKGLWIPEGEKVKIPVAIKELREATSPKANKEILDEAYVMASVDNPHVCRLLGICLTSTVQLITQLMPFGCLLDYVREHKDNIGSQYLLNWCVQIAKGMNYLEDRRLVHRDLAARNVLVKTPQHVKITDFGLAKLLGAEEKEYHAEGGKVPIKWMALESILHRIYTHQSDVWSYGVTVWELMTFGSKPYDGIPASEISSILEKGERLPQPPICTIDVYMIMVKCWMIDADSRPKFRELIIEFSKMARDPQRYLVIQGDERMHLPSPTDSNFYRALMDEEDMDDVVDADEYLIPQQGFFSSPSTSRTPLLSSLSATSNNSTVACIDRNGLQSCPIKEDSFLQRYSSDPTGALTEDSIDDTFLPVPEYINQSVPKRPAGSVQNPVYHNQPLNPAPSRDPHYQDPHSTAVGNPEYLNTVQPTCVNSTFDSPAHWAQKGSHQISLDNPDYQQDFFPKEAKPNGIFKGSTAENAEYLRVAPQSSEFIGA
row,SMILES,IC50
1,Nc1ncnc(Nc2nc(-c3ccc(Cl)cc3)cs2)n1,> 4.5 mg/L
2,COc1cc(Nc2ncnc(-n3c(NCc4ccccc4C)nc4ccccc43)n2)cc(OC)c1OC,> 4.5 mg/L
3,COc1cc(Nc2ncnc(Nc3ccc(S(=O)(=O)NC(C)=O)cc3)n2)cc(OC)c1OC,> 4.5 mg/L
4,Clc1cccc(Nc2ncnc(Nc3cc(-c4ccccc4)n[nH]3)n2)c1,< 0.4 mg/L
5,COc1cc(Nc2ncnc(N3CCc4ccccc43)n2)cc(OC)c1OC,> 4.5 mg/L
6,FC(F)(F)c1cccc(Nc2ncnc(-n3cccc3)n2)c1,> 4.5 mg/L
7,COc1cc(Nc2ncnc(Nc3ccc4c(c3)OCO4)n2)cc(OC)c1OC,0.4 to 2.4 mg/L
8,NC(=O)c1ccc(Nc2ncnc(-n3c(N)nc4ccccc43)n2)cc1,2.4 to 3.5 mg/L
9,COc1cc(Nc2ncnc(-c3cccnc3NCc3ccccc3)n2)cc(OC)c1OC,> 4.5 mg/L
10,CCCN(CC1CC1)c1ncnc(Nc2cc(OC)c(OC)c(OC)c2)n1,3.5 to 4.5 mg/L
11,CN(c1ccc2c(cnn2Cc2ccccc2)c1)c1ncnc(Nc2cccc(Cc3nnn[nH]3)c2)n1,< 0.4 mg/L
12,Fc1cccc(CNc2nc3ccccc3n2-c2ncnc(Nc3cccc(Cn4ccnn4)c3)n2)c1,0.4 to 2.4 mg/L
13,COc1cc(Nc2ncnc(N)n2)cc(OC)c1OC,> 4.5 mg/L
14,COc1cc(Nc2ncnc(-c3cccnc3NC3CCN(Cc4ccccc4)CC3)n2)cc(OC)c1OC,> 4.5 mg/L
15,CCc1ccccc1Nc1ncnc(-n2cccc2)n1,> 4.5 mg/L
16,O=c1[nH]c2ccccc2n1-c1ncnc(Nc2ccc(NS(=O)(=O)c3ccc([N+](=O)[O-])cc3)cc2)n1,0.4 to 2.4 mg/L
17,COc1cc(Nc2ncnc(-n3c(NCc4nccs4)nc4ccccc43)n2)cc(OC)c1OC,2.4 to 3.5 mg/L
18,COC(=O)Cc1cccc(Nc2ncnc(-n3c(NCc4ccccn4)nc4ccccc43)n2)c1,> 4.5 mg/L
19,O=c1[nH]c2ccccc2n1-c1ncnc(Nc2cccc(Cl)c2)n1,2.4 to 3.5 mg/L
20,COc1cc(Nc2ncnc(-n3c(NCC(N)=O)nc4ccccc43)n2)cc(OC)c1OC,> 4.5 mg/L
21,COc1cc(Nc2ncnc(-n3ncc4ccccc43)n2)cc(OC)c1OC,> 4.5 mg/L
22,Fc1ccc(Nc2ncnc(Nc3ccc4[nH]ncc4c3)n2)cc1Cl,< 0.4 mg/L
23,NC(=O)c1cccc(Nc2ncnc(-n3c(=O)[nH]c4ccccc43)n2)c1,> 4.5 mg/L
24,COc1cc(Nc2ncnc(Nc3ccc(Br)cc3F)n2)cc(OC)c1OC,< 0.4 mg/L
25,c1coc(-c2cc(Nc3ncnc(Nc4nc[nH]n4)n3)n[nH]2)c1,0.4 to 2.4 mg/L
26,COc1cc(Nc2ncnc(-c3cccnc3NCc3ccccn3)n2)cc(OC)c1OC,> 4.5 mg/L
27,COc1ccc(Nc2ncnc(N(C)C3CCN(Cc4ccccc4)C3)n2)cc1OC (stereo not drawn),> 4.5 mg/L

row,SMILES,IC50
1,COc1ccc(CNc2nc3ccccc3n2-c2ncnc(Nc3cccc(CC(=O)O)c3)n2)cc1,> 4.5 mg/L
2,O=c1[nH]c2ccccc2n1-c1ncnc(Nc2nccc3ccccc23)n1,0.4 to 2.4 mg/L
3,COc1cc(Nc2ncnc(-c3cccnc3NC(C)c3ccccc3)n2)cc(OC)c1OC (stereo not drawn),> 4.5 mg/L
4,COC(=O)c1ccc(-c2cc(Nc3ncnc(Nc4cccc(C(N)=O)c4)n3)[nH]n2)cc1,> 4.5 mg/L
5,COc1cc(Nc2ncnc(-n3ccc4cc(F)ccc43)n2)cc(OC)c1OC,> 4.5 mg/L
6,COc1ccc(Nc2ncnc(Nc3ccc(Br)cc3F)n2)cc1OC,2.4 to 3.5 mg/L
7,COc1cc(Nc2ncnc(NC3CC3c3ccccc3)n2)cc(OC)c1OC (stereo not drawn),< 0.4 mg/L
8,c1cc(Cn2ccnn2)cc(Nc2ncnc(-n3c(Nc4ccc5[nH]ccc5c4)nc4ccccc43)n2)c1,2.4 to 3.5 mg/L
9,COc1cc(Nc2ncnc(Nc3ccc(O)cc3C)n2)cc(OC)c1OC,2.4 to 3.5 mg/L
10,COc1cc(Nc2ncnc(-n3c(NCc4ccc(Cl)cc4F)nc4ccccc43)n2)cc(OC)c1OC,> 4.5 mg/L
11,c1ccc(CNc2ncccc2-c2ncnc(Nc3ccc(N4CCOCC4)cc3)n2)cc1,> 4.5 mg/L
12,COc1cc(Nc2ncnc(-n3c(Nc4cccc(C(=O)O)c4)nc4ccccc43)n2)cc(OC)c1OC,3.5 to 4.5 mg/L
13,COc1cccc(NC(=O)Nc2ncnc(Nc3cc(OC)c(OC)c(OC)c3)n2)c1,> 4.5 mg/L
14,COC(=O)c1cc(Nc2ncnc(Nc3cc(-c4ccco4)n[nH]3)n2)cc(C(=O)OC)c1,> 4.5 mg/L
15,COc1ccc([C@@H](C)Nc2nc3ccccc3n2-c2ncnc(Nc3cc(OC)c(OC)c(OC)c3)n2)cc1,> 4.5 mg/L
16,CNc1nc2ccccc2n1-c1ncnc(Nc2cc(OC)c(OC)c(OC)c2)n1,> 4.5 mg/L
17,Oc1cccc(Nc2ncnc(-c3ccccc3)n2)c1,> 4.5 mg/L
18,FC(F)C(F)(F)Oc1cccc(Nc2ncnc(-c3ccnc(N4CCCCC4)c3)n2)c1,> 4.5 mg/L
19,CN(C)CCNc1ncnc(Nc2ccc3c(cnn3Cc3ccccc3)c2)n1,0.4 to 2.4 mg/L
20,N#Cc1ccc(Nc2ncnc(-c3cccs3)n2)cc1,> 4.5 mg/L
21,COc1cc(Nc2ncnc(-c3ccnc(NCCCN)c3)n2)cc(OC)c1OC,> 4.5 mg/L
22,COc1cc(Nc2ncnc(-n3c(OCc4ccccn4)nc4ccccc43)n2)cc(OC)c1OC,> 4.5 mg/L
23,COc1ccc(Nc2ncnc(NCCC#N)n2)cc1OC,> 4.5 mg/L
24,COc1cc(Nc2ncnc(Nc3ccncc3)n2)cc(OC)c1OC,> 4.5 mg/L
25,COc1cc(Nc2ncnc(-n3c(NCc4cccc([N+](=O)[O-])c4)nc4ccccc43)n2)cc(OC)c1OC,> 4.5 mg/L
26,CN(C)c1ccc(Nc2ncnc(-n3c(N)nc4ccccc43)n2)cc1,2.4 to 3.5 mg/L

# From the Kinase Knowledgebase extract (Sharma et al. 2016)
